No end group written: not given here.
Molecular target: T1, human TAS1R2-I595T/TAS1R3-WT (Homo sapiens, UniProt Q7RTX0+Q8TE23, I595T)
T1 construct: expressed in transfected cells; host or cells: HEK293T-Gα16gust44
T1 sequence (Q8TE23 20-839 I595T): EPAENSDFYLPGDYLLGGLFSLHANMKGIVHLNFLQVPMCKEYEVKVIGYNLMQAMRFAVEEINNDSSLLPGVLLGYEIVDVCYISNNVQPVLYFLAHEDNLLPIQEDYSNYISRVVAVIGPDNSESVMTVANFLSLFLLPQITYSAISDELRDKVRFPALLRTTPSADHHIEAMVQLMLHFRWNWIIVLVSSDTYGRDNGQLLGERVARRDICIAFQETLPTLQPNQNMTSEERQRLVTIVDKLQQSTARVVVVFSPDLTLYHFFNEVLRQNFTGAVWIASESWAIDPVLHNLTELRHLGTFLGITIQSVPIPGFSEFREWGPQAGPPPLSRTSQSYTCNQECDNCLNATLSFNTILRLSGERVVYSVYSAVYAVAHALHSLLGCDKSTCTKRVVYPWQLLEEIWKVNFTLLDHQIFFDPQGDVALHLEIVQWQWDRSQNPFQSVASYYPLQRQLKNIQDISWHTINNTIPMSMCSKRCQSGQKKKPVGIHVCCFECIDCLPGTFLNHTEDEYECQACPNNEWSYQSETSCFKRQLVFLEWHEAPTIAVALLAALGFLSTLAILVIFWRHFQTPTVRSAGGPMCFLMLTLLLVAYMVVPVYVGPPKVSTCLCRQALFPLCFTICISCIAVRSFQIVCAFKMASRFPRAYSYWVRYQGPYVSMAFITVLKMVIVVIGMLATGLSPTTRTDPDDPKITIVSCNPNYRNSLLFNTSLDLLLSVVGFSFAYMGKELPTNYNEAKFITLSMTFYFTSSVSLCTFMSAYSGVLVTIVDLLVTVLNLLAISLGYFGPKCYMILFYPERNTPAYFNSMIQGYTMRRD
T1 sequence (Q7RTX0 21-852): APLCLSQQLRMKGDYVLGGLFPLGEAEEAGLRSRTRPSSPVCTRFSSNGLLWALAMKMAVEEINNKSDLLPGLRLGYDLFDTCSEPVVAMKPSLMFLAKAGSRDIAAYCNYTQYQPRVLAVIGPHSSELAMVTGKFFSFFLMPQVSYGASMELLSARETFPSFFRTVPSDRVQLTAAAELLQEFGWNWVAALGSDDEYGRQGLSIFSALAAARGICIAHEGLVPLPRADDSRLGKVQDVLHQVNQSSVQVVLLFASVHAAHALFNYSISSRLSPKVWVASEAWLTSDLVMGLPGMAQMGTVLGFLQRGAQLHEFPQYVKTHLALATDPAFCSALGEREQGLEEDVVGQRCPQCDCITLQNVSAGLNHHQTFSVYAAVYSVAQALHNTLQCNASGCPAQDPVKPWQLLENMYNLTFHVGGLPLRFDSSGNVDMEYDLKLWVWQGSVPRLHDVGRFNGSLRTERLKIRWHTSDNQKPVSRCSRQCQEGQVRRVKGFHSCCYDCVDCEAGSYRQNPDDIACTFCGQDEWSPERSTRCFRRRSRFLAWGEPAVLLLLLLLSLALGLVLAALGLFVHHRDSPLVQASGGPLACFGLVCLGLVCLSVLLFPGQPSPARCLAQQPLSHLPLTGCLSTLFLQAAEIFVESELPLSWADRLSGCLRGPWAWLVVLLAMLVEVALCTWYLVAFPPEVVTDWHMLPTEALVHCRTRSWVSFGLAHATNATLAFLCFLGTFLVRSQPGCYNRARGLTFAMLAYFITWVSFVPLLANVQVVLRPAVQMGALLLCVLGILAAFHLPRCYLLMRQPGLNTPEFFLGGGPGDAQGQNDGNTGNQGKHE
Assay: Calcium mobilisation assay, TAS1R2 variant I595T with TAS1R3-WT
Assay type: cell-based
Settings: "-": no activation; for Max ΔF/F0: maximal signal amplitude
Source text: The coding sequences for TAS1R2 and TAS1R3 were commercially synthesised, and the human codon was optimised for expression in human cells. The coding sequences of human TAS1R2 and TAS1R3 were subcloned and inserted into the mammalian expression vectors pcDNA6/myc-HisA and pcDNA4/myc-HisA (Invitrogen; Thermo Fisher Scientific; Illkirch, France) between the EcoRI and NotI restriction sites, generating the plasmids pcDNA6-TAS1R2 and pcDNA4-TAS1R3, respectively. To increase protein expression in mammalian cells, an upstream start codon was used, which was a sequence called MAX, corresponding to the QBI SP163 element also described in pcDNA4-HisMax (Invitrogen; Thermo Fisher Scientific; Illkirch, France). To measure the expression level of the receptor by immunohistochemistry, we used the FLAG sequence ([…]) in the C-terminal position, which encodes the FLAG tag epitope. SNP variants of TAS1R2 and TAS1R3 were constructed based on […], respectively, using site-directed mutagenesis (Genewiz; Leipzig, Germany).
The HEK293T cells were kindly provided by Jay P. Slack (Givaudan Flavors Corporation; Cincinnati, OH, USA). HEK293T cells stably transfected with Gα16gust44 [43, 67] were seeded in poly-D-lysine-coated clear-bottom black 96-well plates (0.35 × 10^5 cells/well) in high-glucose DMEM supplemented with 2 mM GlutaMAX, 10% dialysed foetal bovine serum with penicillin/streptomycin and G418 (400 μg/mL) at 37 °C and 6.3% CO2 in a humidified atmosphere as previously reported. […] As a negative control, HEK293T cells were mock-transfected with the empty expression vector. After a further 24 h of incubation, the HEK293T cells were washed with C1 buffer (130 mM NaCl, 5 mM KCl, 10 mM HEPES pH 7.4 and 2 mM CaCl2). The 96-well plates containing the cells were then stimulated with sweet-tasting compounds. […] Different concentration ranges were tested depending on the sweet compound injected. The Ca^2+ changes were expressed as fractional changes in fluorescent light intensity: ΔF/F = (F − F0)/F0, where F was the fluorescent light intensity at each point, and F0 was the value of emitted fluorescent light prior to stimulus application. To calculate dose–response relationships, the changes in fluorescence upon stimulus application were averaged, mock-subtracted and baseline-corrected. The dose–response data obtained were adjusted using a 4-parameter logistic equation. The half-maximal effective concentrations (EC50 values) and maximal signal amplitudes were calculated using SigmaPlot software (version 15.0) (Systat Software; San Jose, CA, USA).
For in vitro calcium mobilisation assay performed on hTAS1R2-SNPs, hTAS1R3-SNPs and mTAS1R3-I60T, 6 to 7 concentrations were tested for each sweet compound, plus buffer alone. All concentration–receptor combinations were measured in duplicate, and each experiment was repeated at least 4 times (8 wells/concentration). Results were expressed for each concentration as ΔF/F mean ± SEM and represented as dose–response curves.

Molecule	EC50 [µM]	R1 = Variant EC50/WT EC50	Max ΔF/F0
OC[C@H]1O[C@H](O[C@]2(CCl)O[C@H](CCl)[C@@H](O)[C@@H]2O)[C@H](O)[C@@H](O)[C@H]1Cl [Sucralose]	108 ± 5	1.2	0.08 ± 0.02
O=S(=O)(O)NC1CCCCC1 [Cyclamate, cyclamate]	2030 ± 102		
C=C(C)[C@@H]1CC=C(/C=N/O)CC1 [Perillartine, perillartine]	53.2 ± 1.6	3.0	0.51 ± 0.01
C=C1C[C@@]23CC[C@H]4[C@@](C)(CCC[C@@]4(C)C(=O)O[C@@H]4O[C@H](CO)[C@@H](O)[C@H](O[C@@H]5O[C@H](CO)[C@@H](O)[C@H](O)[C@H]5O)[C@H]4O[C@@H]4O[C@H](CO)[C@@H](O)[C@H](O)[C@H]4O)[C@@H]2CC[C@]1(O[C@@H]1O[C@H](CO)[C@@H](O)[C@H](O[C@@H]2O[C@H](CO)[C@@H](O)[C@H](O)[C@H]2O)[C@H]1O[C@@H]1O[C@H](CO)[C@@H](O)[C@H](O)[C@H]1O)C3 [Rebaudioside M, rebaudioside M]	35.8 ± 4	2.1	0.23 ± 0.01
COc1ccc(CCC(=O)c2c(O)cc(O[C@@H]3O[C@H](CO)[C@@H](O)[C@H](O)[C@H]3O[C@@H]3O[C@@H](C)[C@H](O)[C@@H](O)[C@H]3O)cc2O)cc1O [NHDC, neohesperidin dihydrochalcone]	70.3 ± 1.3	0.9	0.09 ± 0.01
thaumatin		3.7	0.39 ± 0.01
CC1=CC(=O)NS(=O)(=O)O1 [Acesulfame K, acesulfame K]	300 ± 139	0.4	0.02 ± 0.01
brazzein (QDKCKKVYENYPVSKCQLANQCNYDCKLDKHARSGECFYDEKRNLQCICDYCEY; ends and bridges not checked; cysteine pairing not given here; UniProt P56552 1-54, looked up) [sweet-tasting protein obtained by recombinant production using the yeast Pichia pastoris]		10.8	0.13 ± 0.02
C[C@H](CC[C@@H](O[C@@H]1O[C@H](CO[C@@H]2O[C@H](CO)[C@@H](O)[C@H](O)[C@H]2O)[C@@H](O)[C@H](O)[C@H]1O[C@@H]1O[C@H](CO)[C@@H](O)[C@H](O)[C@H]1O)C(C)(C)O)[C@H]1CC[C@@]2(C)[C@@H]3CC=C4[C@@H](CC[C@H](O[C@@H]5O[C@H](CO[C@@H]6O[C@H](CO)[C@@H](O)[C@H](O)[C@H]6O)[C@@H](O)[C@H](O)[C@H]5O)C4(C)C)[C@]3(C)[C@H](O)C[C@]12C [Mogroside V, mogroside V]	31.4 ± 6	1.8	0.27 ± 0.03
COC(=O)[C@H](Cc1ccccc1)NC(=O)[C@H](CC(=O)O)NCCC(C)(C)C [Neotame]	1.27 ± 0.18	1.5	0.09 ± 0.01
thaumatin (protein, Eight disulfides, sweet-tasting plant protein, E957) ATFEIVNRCSYTVWAAASKGDAALDAGGRQLNSGESWTINVEPGTKGGKIWARTDCYFDDSGSGICKTGDCGGLLRCKRFGRPPTTLAEFSLNQYGKDYIDISNIKGFNVPMDFSPTTRGCRGVRCAADIVGQCPAKLKAPGGGCNDACTVFQTSEYCCTTGKCGPTEYSRFFKRLCPDAFSYVLDKPTTVTCPGSSNYRVTFCPTA	27.8 ± 1.4		

From PMC11945486, “TAS1R2/TAS1R3 Single-Nucleotide Polymorphisms Affect Sweet Taste Receptor Activation by Sweeteners: The SWEET Project” (Nutrients, 2025)
